# Experimental data from patent US6121512A, “Cytochrome P-450 constructs and method of producing herbicide-resistant transgenic plants” (North Carolina State University, priority 1997, dated 2000).
# T1: soybean CYP71A10 (Glycine max, UniProt O48918)
# T1 construct: microsomes of yeast W(R) overexpressing endogenous P450 reductase
# T1 sequence (O48918 1-513): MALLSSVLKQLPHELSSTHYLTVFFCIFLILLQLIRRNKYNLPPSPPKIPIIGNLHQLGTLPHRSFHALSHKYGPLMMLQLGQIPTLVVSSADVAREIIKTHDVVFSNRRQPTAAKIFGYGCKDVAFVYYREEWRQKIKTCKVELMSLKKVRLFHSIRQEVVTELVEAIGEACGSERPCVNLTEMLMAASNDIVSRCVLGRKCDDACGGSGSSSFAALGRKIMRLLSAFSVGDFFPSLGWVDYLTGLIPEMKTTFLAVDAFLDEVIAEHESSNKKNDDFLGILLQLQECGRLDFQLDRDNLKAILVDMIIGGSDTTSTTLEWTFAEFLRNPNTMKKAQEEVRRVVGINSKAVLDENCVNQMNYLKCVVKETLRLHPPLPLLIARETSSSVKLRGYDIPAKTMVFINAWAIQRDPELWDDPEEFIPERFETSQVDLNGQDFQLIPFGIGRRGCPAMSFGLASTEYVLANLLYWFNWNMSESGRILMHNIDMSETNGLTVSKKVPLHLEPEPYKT
# T1 sequence (P16603 1-691 partner): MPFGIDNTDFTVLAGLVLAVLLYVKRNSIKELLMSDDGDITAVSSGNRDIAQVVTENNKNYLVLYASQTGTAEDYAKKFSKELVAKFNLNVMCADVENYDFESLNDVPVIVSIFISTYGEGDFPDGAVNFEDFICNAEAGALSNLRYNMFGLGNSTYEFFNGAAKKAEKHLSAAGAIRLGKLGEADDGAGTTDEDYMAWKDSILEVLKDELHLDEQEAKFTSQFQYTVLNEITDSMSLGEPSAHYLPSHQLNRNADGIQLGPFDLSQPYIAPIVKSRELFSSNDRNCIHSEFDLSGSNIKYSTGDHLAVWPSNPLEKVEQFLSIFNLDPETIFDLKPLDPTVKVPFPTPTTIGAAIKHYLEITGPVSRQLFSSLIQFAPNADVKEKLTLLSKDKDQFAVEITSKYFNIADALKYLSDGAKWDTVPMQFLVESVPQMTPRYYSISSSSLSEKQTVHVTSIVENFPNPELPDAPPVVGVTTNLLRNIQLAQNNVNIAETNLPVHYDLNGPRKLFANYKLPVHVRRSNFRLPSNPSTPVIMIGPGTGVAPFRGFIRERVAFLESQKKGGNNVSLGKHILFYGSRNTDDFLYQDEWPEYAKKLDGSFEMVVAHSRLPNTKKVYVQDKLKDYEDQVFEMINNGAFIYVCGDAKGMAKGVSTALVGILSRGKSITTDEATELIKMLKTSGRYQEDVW
# Assays:
# soybean CYP71A10 = target: T1, soybean CYP71A10; test: In vitro herbicide metabolism assay and enzyme kinetics, microsomes of yeast expressing CYP71A10; format: biochemical; conditions: for metabolites formed from the radiolabeled herbicide (TLC): 45 minutes at 27° C., 0.75 mM NADPH, 2.5 mg/ml microsomal protein
# Procedure: Yeast transformation was performed as described by Geitz et al., Nucleic Acids Research 20:1425 (1992). Media composition, culturing conditions, galactose induction, and microsomal preparations were conducted according to Pompon et al., Methods Enzymol. 272:51-64 (1995), using a culture volume of 250 ml. Microsomal protein was quantified spectrophotometrically using the method of Waddell, J. Lab. Clin. Med. 48:311-314 (1956), using bovine albumin as a standard. Dithionite-reduced, carbon monoxide difference spectra was obtained as previously outlined (Estabrook and Werringloer, Methods Ennzmol. 52:212-220 (1978)) using a Shimadzu Recording Spectrophotometer UV-240 (Shimadzu, Kyoto, Japan). P-450 protein concentrations of yeast microsomes were calculated using a millimolar extinction coefficient of 91 (Omura and Sato, J. Biol. Chem., 239:2370-2378 (1964)).
# Yeast microsomes enriched for a discrete soybean P-450 isozyme were assayed for their capacity to metabolize the ten herbicides and one insecticide listed in Table 3. The reaction mixtures contained 10,000 DPM (100-200 ng) radiolabeled substrate, 0.75 mM NAPDH, 2.5 mg/ml microsomal protein. Total reaction volumes were adjusted to 150 μl with 50 mM phosphate buffer (pH 7.1). The mixtures were incubated under light for 45 minutes at 27° C., arrested with 50 μl acetone and centriftiged at 14 000×g for 2 minutes. […] Radiolabeled bentazon and imazaquin-containing samples were spotted onto 200 micron Whatman LKC18F silica gel reversed-phase plates. All plates were developed in a benzene/acetone 2:1 (v/v) solvent system with the exception of prosulfaron, developed in toluene/acetone/acetic acid, 75:20:5 (v/v/v), and bentazon and imazaquin, developed in methanol/75 mM sodium acetate 40:60 (v/v). The developed plates were scanned with a Bioscan System 400 imaging scanner (Bioscan, Washington, D.C.), and the production of metabolites was determined based on the chromatographic profiles. For microsomes containing the expressed CYP71A10 enzyme, control experiments were also conducted to measure the NADPH-dependency, and the inhibitory effects of CO. CO treatment of the sample was achieved by gentle bubbling of the gas through the reaction mixture for 2 minutes immediately before the assay was initiated by the addition of NADPH.
# Substrate conversion was quantified by a combination of TLC analysis and scintillation spectrometry. The location of the metabolic products on the TLC plates was identified using an imaging scanner, the bands were scraped and analyzed by scintillation spectrometry. The amount of metabolite produced was calculated based on specific activity and scintillation counts. Each assay was repeated at least twice. Km and Vmax values were estimated using nonlinear regression analysis.
# [1] = test system: excised leaves of transgenic tobacco plant 25/2 progeny (CYP71A10-transformed); test: In vivo herbicide metabolism assay, excised leaves of CYP71A10-transformed tobacco; parameters: species or system Nicotiana tabacum cv SR1; conditions: for % of herbicide metabolized, CYP71A10-transformed: after 14 hours, 1.2 nmol herbicide, standard error in parentheses, four 25/2 plants; for share of the chlortoluron metabolites recovered from CYP71A10-transformed leaves: 14 hours, TLC
# Procedure: (§1) Seeds from primary transgenic tobacco plants transformed with CYP71A10 and control plants transformed with the pBI121 vector were grown in Petri dishes containing MS salts and 100 μg/ml kanamycin. At five weeks post-seeding, kanamycin-resistant plantlets were transplanted into pots containing soil and grown an additional two weeks. Single leaves of approximately 10 cm^2 in size were excised and their petioles inserted into 100 μl of H2 O containing radiolabeled herbicide. The leaves were placed in a growth chamber maintaining a temperature of 27° C. and incubated until the entire volume of the herbicide solution was drawn up by the transpirational stream of the leaves (about 3 hrs). The leaves were subsequently transferred into an Eppendorf tube containing distilled water and further incubated for a total of 14 hours.
# (§2) [^14 C]-labeled herbicide was extracted from the leaves by grinding for 5 minutes in 250 μl methanol with a plastic pellet pestle driven by an electric drill. After centrifugation for 3 minutes at 14,000 g, 75μl of the supernatant was spotted on a Whatman K6F silica plate and developed in a solvent system containing chloroforn/ethanol/acetic acid 135:10:15 (v/v/v). The separated herbicide derivatives were visualized using an imaging scanner. Substrate conversion was quantified based on the amount of herbicide absorbed, and the ratios of the parent compound and the produced metabolites determined from the TLC profiles.
# [2] = test system: excised leaves of control tobacco plants transformed with pBI121; test: In vivo herbicide metabolism assay, excised leaves of control tobacco; parameters: species or system Nicotiana tabacum cv SR1; conditions: for % of herbicide metabolized, Control: after 14 hours, 1.2 nmol herbicide, standard error in parentheses, three pBI121 control plants; for share of the chlortoluron metabolites produced in control leaves: 14 hours, TLC
# Procedure: as §1, §2
# [3] = test system: CYP71A10-transformed tobacco; test: Herbicide tolerance, seeds germinated on herbicide medium, CYP71A10-transformed tobacco; format: in vivo, Nicotiana tabacum cv SR1; conditions: for tolerance of line 25/2 to the herbicide: compared with control plants, data not shown
# Procedure: (§3) T1 generation seeds from CYP71A10-transformed tobacco and pBI121-transformed control plants were placed onto Petri dishes containing MS salts and linuron (using its commercial formulation LOROX 50 DF) at active ingredient concentrations ranging from 0.25 to 3.0 μM. Chlortoluron was added at 0, 1.0, 5.0 and 10.0 μM concentrations using a 99.5% pure analytical standard. The Petri dishes were incubated in a growth chamber maintaining a constant temperature of 27° C. and a 16/8 hour light/dark cycle. The phytotoxic effects of the treatments were determined visually by comparison to control plants and plants grown in the absence of the herbicide. All treatments were repeated at least twice.
# [4] = test system: wild-type SR1 plants and pBI121-transformed control tobacco plants; test: Herbicide tolerance, seeds germinated on herbicide medium, control tobacco; format: in vivo, Nicotiana tabacum cv SR1; conditions: data not shown
# Procedure: as §3
# Hill-reaction = conditions: cited from earlier work
# [5] = substrate: CN(C)C(=O)Nc1ccc(Cl)c(Cl)c1; test: cells, lysate or membranes named; conditions: other: yeast microsomes containing CYP71A10; standard error in parentheses; nonlinear regression; pH 7.1; 27.0 °C
# [6] = substrate: CN(C)C(=O)Nc1cccc(C(F)(F)F)c1; test: In vitro herbicide metabolism assay and enzyme kinetics, microsomes of yeast expressing CYP71A10; format: biochemical, soybean (Glycine max); conditions: other: yeast microsomes containing CYP71A10; standard error in parentheses; nonlinear regression; pH 7.1; 27.0 °C
# [7] = substrate: CON(C)C(=O)Nc1ccc(Cl)c(Cl)c1; test: as above; format: biochemical, soybean (Glycine max); conditions: other: yeast microsomes containing CYP71A10; standard error in parentheses; nonlinear regression; pH 7.1; 27.0 °C
# [8] = substrate: Cc1ccc(NC(=O)N(C)C)cc1Cl; test: as above; format: biochemical, soybean (Glycine max); conditions: other: yeast microsomes containing CYP71A10; standard error in parentheses; nonlinear regression; pH 7.1; 27.0 °C
# [9] = yeast microsomes containing CYP71A10, standard error in parentheses
molecule,measurement,setting,value
"[C-]#[O+] [CO, carbon monoxide]",reduction of linuron metabolizing activity,"soybean CYP71A10; linuron as substrate (3.2 μM), CO bubbled through reaction mixture for 2 minutes",approximately 37%
"CN(C)C(=O)Nc1ccc(Cl)c(Cl)c1 [Diuron, diuron]",metabolites formed from the radiolabeled herbicide (TLC),soybean CYP71A10,a single metabolite
same,Turnover,soybean CYP71A10; [9],0.4 (0.04) min^-1
same,Vmax,soybean CYP71A10; [9],16.8 (1.6) pmol min^-1 mg^-1 protein
same,"% of herbicide metabolized, CYP71A10-transformed",[1],49 (7.0) %
same,"% of herbicide metabolized, Control",[2],20 (2.0) %
same,tolerance of line 25/2 to the herbicide,[3],little tolerance
"CN(C)C(=O)Nc1cccc(C(F)(F)F)c1 [Fluometuron, fluometuron]",metabolites formed from the radiolabeled herbicide (TLC),soybean CYP71A10,a single metabolite
same,Turnover,soybean CYP71A10; [9],6.8 (0.24) min^-1
same,"% of herbicide metabolized, CYP71A10-transformed",[1],91 (4.5) %
same,"% of herbicide metabolized, Control",[2],15 (0.6) %
same,tolerance of line 25/2 to the herbicide,[3],little tolerance
"CON(C)C(=O)Nc1ccc(Cl)c(Cl)c1 [Linuron, linuron]",metabolites formed from the radiolabeled herbicide (TLC),soybean CYP71A10,two (a major and a minor) metabolites
same,linuron metabolizing activity with microsomes of yeast expressing only the V60 control plasmid,"soybean CYP71A10; V-60 control microsomes, no CYP71A10",no activity is detected
same,linuron metabolites when NADPH is omitted from the reaction,soybean CYP71A10; no NADPH,no metabolites are observed
same,Turnover,soybean CYP71A10; [9],2.8 (0.27) min^-1
same,"% of herbicide metabolized, CYP71A10-transformed",[1],87 (2.0) %
same,"% of herbicide metabolized, Control",[2],12 (2.6) %
same,germinated seedlings of plant 25/2 inhibited by the herbicide,[3]; 0.5 μM linuron in medium,one of 23
same,number of 20 other independent CYP71A10-expressing lines giving linuron tolerant progeny,[3]; 0.5 μM linuron in medium,19 lines
same,linuron level to which tolerant 25/2 plants were observed,[3]; increasing percentage of plants inhibited with rising concentration,≤ 2.5 µM
same,growth of wild-type SR1 and pBI121 control plants,[4]; 0.25 μM linuron (LOROX 50 DF) in medium,severely inhibited
same,growth of wild-type SR1 and pBI121 control plants,[4]; linuron 0.5 μM and higher in medium,completely arrested
same,inhibition of the Hill-reaction relative to N-demethyl linuron,Hill-reaction,10 fold
CNC(=O)Nc1ccc(C)c(Cl)c1 [N-demethyl chlortoluron],share of the chlortoluron metabolites recovered from CYP71A10-transformed leaves,[1],8%
same,share of the chlortoluron metabolites produced in control leaves,[2],Sixty three
same,share of the chlortoluron metabolites produced in control leaves,[2]; listed as Ndemethyl chlortoluron,63%
CN(C)C(=O)Nc1ccc(CO)c(Cl)c1 [ring-methyl hydroxy chlortoluron],share of the chlortoluron metabolites recovered from CYP71A10-transformed leaves,[1],47%
Clc1ccc(N2N=NC3C4CC(C5N=NC45)C32)cc1 (centres unmarked) [tetcyclasis],effect on linuron metabolizing activity,soybean CYP71A10,completely abolished
"soybean CYP71A10 (Glycine max) (protein, microsomes of yeast W(R) overexpressing endogenous P450 reductase) MALLSSVLKQLPHELSSTHYLTVFFCIFLILLQLIRRNKYNLPPSPPKIPIIGNLHQLGTLPHRSFHALSHKYGPLMMLQLGQIPTLVVSSADVAREIIKTHDVVFSNRRQPTAAKIFGYGCKDVAFVYYREEWRQKIKTCKVELMSLKKVRLFHSIRQEVVTELVEAIGEACGSERPCVNLTEMLMAASNDIVSRCVLGRKCDDACGGSGSSSFAALGRKIMRLLSAFSVGDFFPSLGWVDYLTGLIPEMKTTFLAVDAFLDEVIAEHESSNKKNDDFLGILLQLQECGRLDFQLDRDNLKAILVDMIIGGSDTTSTTLEWTFAEFLRNPNTMKKAQEEVRRVVGINSKAVLDENCVNQMNYLKCVVKETLRLHPPLPLLIARETSSSVKLRGYDIPAKTMVFINAWAIQRDPELWDDPEEFIPERFETSQVDLNGQDFQLIPFGIGRRGCPAMSFGLASTEYVLANLLYWFNWNMSESGRILMHNIDMSETNGLTVSKKVPLHLEPEPYKT",Km,[5],1.5 µM
same,Km,[6],14.9 µM
same,Km,[7],9.8 µM
same,Vmax,[7],125.6 (12.0) pmol min^-1 mg^-1 protein
same,Km,[8],1 µM
same,Vmax,[8],29.4 (2.2) pmol min^-1 mg^-1 protein
